Entries after “also recorded” stand apart in the source; their conditions may differ.
Tests used:
[1] = molecular target: T1, guinea pig myocardial adenylate cyclase (Cavia porcellus, UniProt P47747); test: Guinea pig myocardial adenylate cyclase assay; assay type: biochemical; settings: for Activity on guinea pig myocardium (in words): adenylate cyclase
T1 construct: histamine-stimulated adenylate cyclase with GPP(NH)P
Procedure: Male, partly albino, guinea pigs (600 g average weight) were killed by a blow to the head. The hearts were excised and immediately immersed in ice cold oxygenated Tyrode's solution. Both ventricles were dissected free and placed in 250 mM sucrose, 5 mM Tris, 1 mM EDTA, pH 7.45. The tissue was minced with a screen, and was then homogenized with 3 consecutive 5 sec bursts of a Polytron (Brinkman Instruments, Inc., Westbury, NY) at a setting of 11. The homogenate was then centrifuged at 1085×g for 20 min. The pellet was resuspended and recentrifuged twice. The final suspension was filtered through four layers of gauze. Adenylate cyclase was assayed by the method of Salomon et al., Anal. Biochem. (1974) 58:541 as modified by Bristow et al., Mol Pharmacol. (1982) 21:671. Enzyme protein (75-250 μg) was added to a reaction mixture that consisted of 0.1 mM Mg ATP, 0.5 mM MgCl2, 10 mM phosphocreatine, 14.5 μg of creatine kinase (1381 U/mg), 100 mM
The final reaction volume before addition of α-^32 P!ATP was 225 μl. Reaction tubes were stored in cryogenic racks (Kryorack, Isolab, Inc. Akron, OH) at 0° C.
The reaction mixture was pre-warmed in a shaking water bath at 30° C. for 5 min after which 25 μl ([…]) of α-^32 P!ATP (250-500 Ci/mM) was added to label the ATP pool. The assay time was 20 min, the time needed for measurable stimulation of adenylate cyclase. The ^32 P reaction was stopped by the addition of 750 μl of 1% sodium dodecysulfate. ^32 P-labelled cyclic AMP was then isolated by the dual Dowex-alumina column method of Salomon et al., supra. α-^32 P!ATP (New England Nuclear Corporation, Boston, MA) that gave reagent blanks of 50 cpm was purified on Dowex columns as described by Salomon et al., supra.

natural suppressor cells [2] = settings: literature, Khan et al. 1985; listed as histamine; cited from earlier work
lymphoid cells = test: Effect of beta adrenergic blockade on cAMP accumulation in lymphoid cells; assay type: cell-based; settings: 6×10^-6 M propranolol
natural suppressor cells [3] = molecular target: T2, natural suppressor cells (Mus musculus, UniProt P97292); test: Effects of histamine derivatives on cAMP accumulation in natural suppressor (NS) cells; assay type: cell-based, mouse (BALB/c); settings: for Relative potency: NS cells, histamine = 1.0; for Activity / potency on NS cells (in words): cAMP accumulation, H2 activity
T2 construct: cAMP accumulation
From the text: NS cells were obtained and cultured as follows: four-to six-month old BALB/c mice were anesthetized with pentobarbital and all major lymphoid organs, including all major lymph nodes, the spleen, and the thymus, were irradiated as described by Slavin et al., Science (1976) 193:1252. The skull, lungs, and hind legs were shielded with lead. The mice were given 200 rad per day, 5 times per week, to a total dose of 3400 rad. Irradiation was delivered from a single 250 kV (15A) source (Philips Medical Systems, Inc., Shelton, CT). The mice were killed between 5 and 15 days after completion of the TLI. Spleens were removed aseptically and single cell suspensions were prepared by gently pressing the spleen fragments through a nylon fiber mesh (Tetko, Inc., Elmsford, NY). These spleen cells were fed daily with tissue culture medium containing RPMI 1640, 10% FCS, 2 mM glutamine, 10% CAS and 5×10^-5 M 2-mercaptoethanol and were later cloned by limiting dilutior, The clones were maintained in RPMI 1640 medium with 10% PCS and 10% CAS.
NS cells were centrifuged and resuspended at b 1×10^6 /ml in PBS and incubated at 37° C. for 10 min with 10 mM IBMX at a final concentration at 20 μM. Alternatively the cells were resuspended in 5 mM HEPES and 1 mM MgSO4 and after five minutes were disrupted in a Dounce homogenizer. Broken cells were centrifuged at 20,000 g […] for thirty minutes and supernatant was discarded. The pellet was resuspended in Tris (pH 7.5), 5 mM HEPES and 1 mM MgSO4 and incubated with IBMX.
Cold TCA (100%) was added to a final concentration of 8% and the tubes were stored in ice. Samples were extracted 3 times with 3 volumes of ether. The ether was evaporated at 40° C. in a water bath for approximately 45 min. Acetylation of both experimental samples and cAMP standards were performed by addition of 10 μl of a mixture of triethylamine and acetic anhydride (2:1). […] The radio-immunoassay was performed as reported previously by Khan et al., J. Clin. Invest. (1985) 75:1578.

natural suppressor cells [4] = molecular target: T2, natural suppressor cells; test: Blocking histamine effects in natural suppressor cells (H2 antagonism); assay type: cell-based, mouse (BALB/c); settings: for Blockade of histamine mediated accumulation of cAMP: NS cells
Procedure: This assay was carried out in the same fashion as already described for the derivatives except that ED-90 concentration of the test compound was chosen. Cimetidine was added at the same time in concentrations ranging from 10^-4 to 10^-8 M. Alternatively, 10^-6 M cimetidine was added to 10^-3 -10^-8 M concentration of agonists.

natural suppressor cells [5] = test: Mixed leukocyte reaction (MLR) suppressor assay; assay type: cell-based, mouse (BALB/c, C57 BL/6)
Procedure: Responder (BALB/c) and stimulator (C57 BL/6) spleen cells (5×10^5each) were incubated with graded numbers of NS cells in 0.3 ml/well in 96-well flat bottomed microculture plates (Costar, Data Packaging, Cambridge, MA). The culture medium was supplemented with 100 U/ml penicillin, 100 ug/ml of streptomycin (both GIBCO, Grand Island, NY), and 10=pooled human serum (VSP human serum, Biocell Laboratories, Carson CA). Co-cultured cells and stimulator cells were given 3300 rad before incubation. Cultures were maintained at 37° C. in 5% CO2 for 5 or 6 days. Eighteen hr before termination, 1 μCi of ^3 H!-thymidine (specific activity […]) (New England Nuclear, Boston, MA) was added to each culture. Cells were harvested as described above. The data were expressed as the arithmetic mean of triplicate cultures. Suppression was calculated as follows: percent suppression=1-(CPM with co-cultured cells)/(CPM without co-cultured cells)×100. […] To block the effects of agonists, […] cimetidine was used as an H2 antagonist and 10^-6 M mepyramine was used as an H1 antagonist.
CO-cultured and stimulator cells were given 3300 rad in vitro just prior to incubation. […] See, Khan et al., J. Immunol. (1985) 134:4100. […] To determine the role of H1 and H2 receptors in the modification of NS cell function, the incubation with compound 10 was carried out in the presence of either cimetidine (10^-5 M) or mepyramine (10^-6 M) for four hours at 37° C. The cells were then washed extensively and later added to co-cultures with responder and stimulator cells. […] Similar experiments were carried out with each of the indicated agonists (Table 5).

T1 sequence (P47747 whole entry): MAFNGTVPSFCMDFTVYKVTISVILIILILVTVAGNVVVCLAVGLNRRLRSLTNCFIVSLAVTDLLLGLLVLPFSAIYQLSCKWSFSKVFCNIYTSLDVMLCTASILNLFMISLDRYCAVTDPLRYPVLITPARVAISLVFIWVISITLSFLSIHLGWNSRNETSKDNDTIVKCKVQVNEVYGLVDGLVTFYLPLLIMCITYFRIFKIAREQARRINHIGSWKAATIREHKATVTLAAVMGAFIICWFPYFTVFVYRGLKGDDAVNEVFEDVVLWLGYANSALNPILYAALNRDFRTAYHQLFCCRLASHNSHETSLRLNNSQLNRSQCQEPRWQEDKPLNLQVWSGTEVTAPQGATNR
T2 sequence (P97292 whole entry): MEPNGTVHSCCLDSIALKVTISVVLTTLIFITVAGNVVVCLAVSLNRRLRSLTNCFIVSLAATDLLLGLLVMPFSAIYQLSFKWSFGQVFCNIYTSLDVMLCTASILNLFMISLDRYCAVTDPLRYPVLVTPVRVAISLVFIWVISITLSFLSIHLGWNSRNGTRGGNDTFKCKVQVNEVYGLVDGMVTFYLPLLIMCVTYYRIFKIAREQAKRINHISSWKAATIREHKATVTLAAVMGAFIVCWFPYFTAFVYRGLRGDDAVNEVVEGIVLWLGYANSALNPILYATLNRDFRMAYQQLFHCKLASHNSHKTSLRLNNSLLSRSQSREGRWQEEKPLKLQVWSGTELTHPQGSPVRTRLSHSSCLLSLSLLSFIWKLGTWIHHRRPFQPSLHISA

Row | Structure (SMILES) | Relative potency (natural suppressor cells [3]) | Activity / potency on NS cells (in words) (natural suppressor cells [3]) | Activity on guinea pig myocardium (in words) [1] | Blockade of histamine mediated accumulation of cAMP (natural suppressor cells [4]) | H1 activity in MLR (in words) (natural suppressor cells [5]) | also measured
1 | NCCc1c[nH]cn1 [Histamine, 2-(4'-imidazolinyl)ethylamino] | – | – | – | – | – | Stimulation of adenylate cyclase over base levels ([1]; histamine 10^-5 M): threefold stimulation of adenylate cyclase over base levels; Effect on suppressive ability of NS cells (natural suppressor cells [2]): augmented the suppressive capacity of NS cells via H1 receptors
2 | CC(C)NCC(O)COc1cccc2ccccc12 (stereo not shown) [Propranolol] | – | – | – | – | – | Effect on histamine-induced intracellular accumulation of cAMP (lymphoid cells): had no effect on histamine-induced intracel accumulation of cAMP; Blockade of the effects of isoproterenol (lymphoid cells; 10^-5 M isoproterenol): completely blocked the effects of 10^-5 M isoproterenol
3 | CCCCCC(=O)NCCc1c[nH]cn1 [Compound 3, N-Hexamido-4-2'-aminoethyl!imidazole] | Inactive | impotent as H2 receptor agonists on NS cells | completely inactive | failed to block histamine mediated accumulation of cAMP | no H1 activity | Activity / potency on NS cells (in words) (natural suppressor cells [3]; listed as compound 3): inactive; also recorded: Neither an aliphatic amide derivative of histamine (compound 3) nor the dipeptide conjugate of histamine (compound 12) altered intracellular cAMP; also recorded: nor did they stimulate intracellular accumulation of cAMP
4 | CCCCNC(=O)CCCCC(C)NCCc1c[nH]cn1 (stereo not shown) [Compound 13] | Inactive | impotent as H2 receptor agonists on NS cells | stimulated guinea pig myocardium | failed to block histamine mediated accumulation of cAMP | no H1 activity | Activity / potency on NS cells (in words) (natural suppressor cells [3]; listed as compound 13): inactive on NS cells; also recorded: nor did they stimulate intracellular accumulation of cAMP
5 | CC(CCCCC(=O)Nc1ccccc1C(F)(F)F)NCCc1c[nH]cn1 (stereo not shown) [Compound 11] | Inactive | impotent as H2 receptor agonists on NS cells | – | failed to block histamine mediated accumulation of cAMP | nullified both detectable H1 and H2 activity | Activity / potency on NS cells (in words) (natural suppressor cells [3]; listed as compound 11): nullified both detectable H1 and H2 activity
6 | CCCCCC(C)NCCc1c[nH]cn1 (stereo not shown) [Compound 2] | Inactive | impotent as H2 receptor agonists on NS cells | completely inactive | failed to block histamine mediated accumulation of cAMP | no H1 activity | Activity / potency on NS cells (in words) (natural suppressor cells [3]; listed as compound 2): inactive; also recorded: nor did they stimulate intracellular accumulation of cAMP
7 | CN/C(=N/CCSCc1nc[nH]c1C)NC#N [Cimetidine, reference compound] | – | – | – | – | – | Effect on basal activity (natural suppressor cells [4]; 10^-6 M cimetidine): did not lower the basal activity; Antagonism by cimetidine (H2 antagonist) of cAMP accumulation (natural suppressor cells [4]; cimetidine 10^-5 M, compounds 6-8 at 10^-4 M, 9 at 10^-7 M): competitively blocked the actions of compounds 6-8 (used at 10^-4 M) and 9 (used at 10^-7 M); Ki (natural suppressor cells [4]; lymphoid cells, read-out: Inhibition constant): 110 to 430 nM; Effect of antagonist on derivative-enhanced suppression in MLR (natural suppressor cells [5]; with compound 10, cimetidine 10^-5 M or mepyramine 10^-6 M, four hours at 37° C): did not alter the derivative-enhanced suppression
